One compound from article PMC6934184, “Selective DNA-PKcs inhibition extends the therapeutic index of localized radiotherapy and chemotherapy” (The Journal of Clinical Investigation, 2019) can be followed below.

The target in this experiment is T1, EPHA4 (Homo sapiens, UniProt P54764).
T1 construct: purchased Thermo Fisher Scientific (Life Technologies) SelectScreen
Description: SelectScreen Z'LYTE. The experiment is classed as biochemical. The method in brief: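 NU5455 was profiled across the SelectScreen Broad panel of kinase activity and binding assays. Z'LYTE reactions such as CSF1R ran at apparent Km ATP, while the Adapta CAMK1 assay used ATP listed as 10. Values are given as percent.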

T1 sequence (P54764 20-986): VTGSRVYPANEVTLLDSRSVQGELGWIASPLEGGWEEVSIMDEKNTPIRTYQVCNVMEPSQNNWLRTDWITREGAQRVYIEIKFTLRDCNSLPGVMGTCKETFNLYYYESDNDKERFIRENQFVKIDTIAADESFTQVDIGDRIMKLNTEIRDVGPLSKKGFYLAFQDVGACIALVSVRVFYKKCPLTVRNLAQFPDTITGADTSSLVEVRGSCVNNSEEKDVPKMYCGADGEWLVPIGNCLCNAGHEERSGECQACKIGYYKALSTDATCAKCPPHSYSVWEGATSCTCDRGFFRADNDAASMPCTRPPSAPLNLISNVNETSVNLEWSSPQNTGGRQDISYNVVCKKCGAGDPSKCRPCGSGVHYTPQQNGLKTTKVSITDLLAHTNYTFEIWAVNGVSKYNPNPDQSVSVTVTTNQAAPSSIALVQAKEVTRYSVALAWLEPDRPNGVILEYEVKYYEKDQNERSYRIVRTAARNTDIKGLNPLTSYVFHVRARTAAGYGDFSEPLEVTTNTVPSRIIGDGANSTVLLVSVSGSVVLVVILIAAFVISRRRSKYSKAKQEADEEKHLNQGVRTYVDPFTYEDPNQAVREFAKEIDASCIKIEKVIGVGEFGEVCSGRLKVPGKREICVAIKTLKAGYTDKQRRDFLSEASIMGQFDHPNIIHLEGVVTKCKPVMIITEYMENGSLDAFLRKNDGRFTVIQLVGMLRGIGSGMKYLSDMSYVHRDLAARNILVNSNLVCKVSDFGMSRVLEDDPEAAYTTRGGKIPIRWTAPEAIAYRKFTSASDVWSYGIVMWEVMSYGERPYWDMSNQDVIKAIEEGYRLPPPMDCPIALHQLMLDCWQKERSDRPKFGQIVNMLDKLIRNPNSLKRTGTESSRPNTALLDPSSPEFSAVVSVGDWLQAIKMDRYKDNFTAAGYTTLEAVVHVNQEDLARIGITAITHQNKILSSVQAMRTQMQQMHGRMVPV

As for `CN(C(=O)CN1CCOCC1)c1ccc2sc3c(-c4cccc5c(=O)cc(N6CC7CCC(C6)O7)oc45)cccc3c2c1` [NU5455], the inhibition at 1 µM came out at 2.9%.
